{
  "source": "patent US11826431B2",
  "about": "“Polypeptide-based ocular absorption enhancer and application thereof” (Fudan University, priority 2017, dated 2023)",
  "key": {"[1]": {"experiment": "Intraocular distribution of penetratin derivative-FAM complexes after conjunctival sac administration", "format": "in vivo, mice", "method": "Evaluation of intraocular distribution of the covalently linked complex of Penetratin derivatives and small molecules: 5 μL of a solution of complex of penetratin derivative and FAM (concentration 30 μM) was dripped into the conjunctival sac of male mice, and the eyelids were gently closed to distribute the solution evenly. The solution was administered every 10 minutes for a total of 3 times, and taking the time of the last administration as zero time. At a preset time point, mice were killed by intraperitoneal injection of excessive chloral hydrate, and the eyeballs of the mice were removed, fixed with Davidson's solution for 0.5 h, and embedded. Frozen longitudinal sections of eyeballs were prepared and the nuclei were stained with DAPI, and the distribution of polypeptides in the eye parts was observed under an inverted fluorescence microscope."}, "[2]": {"experiment": "In vitro tissue permeability, isolated cornea (diffusion cells)", "format": "in vitro ADME, rabbit", "method": "(§1) Evaluation of in vitro tissue permeability of the covalently linked complex of Penetratin derivatives and small molecular substances: the experimental rabbits were anesthetized with pentobarbital sodium (30 mg/kg), which is injected via ear vein, and sacrificed by injection with excessive chloral hydrate (150 mg/kg). After separation of the conjunctiva, carefully removed the entire eyeball, make a circumcision at about 2 mm from the limbus of cornea and remove the cornea, and removed the iris and other tissues to obtain an experimental cornea. The rest of the eyeballs were removed from the retina and other tissues to obtain an experimental sclera. Both the cornea and sclera were carefully washed with Ringer's solution 3 times before use. The experiment was started within 30 min after the animals were sacrificed. The freshly isolated cornea and sclera were carefully sandwiched between two diffusion cells, with the epithelial surface facing a diffusion cell (supply cell) on the left, the diffusion window diameter was 10.25 mm, and the diffusion area was 0.825 cm^2. 3.5 mL of Ringer's solutions were added to the supply cell and a receiving cell on the right, respectively. Circulating water was passed therein, and the water temperature was kept at 34° C.±0.5° C. […] Immediately after the experiment, the fluorescence intensity of the sample was measured. […]"}, "[3]": {"experiment": "In vitro tissue permeability, isolated sclera (diffusion cells)", "format": "in vitro ADME, rabbit", "method": "as §1"}, "[4]": {"conditions": "10 min after conjunctival sac administration (FIG. 6B)"}, "[5]": {"conditions": "7.5 μM complex with FAM, 34° C."}, "[6]": {"conditions": "DAPI stained frozen sections after permeability experiment"}},
  "note": "Where a SMILES comes first, the peptide text is derived from it. The star is where a group is joined. 5FAM = O=C1OC2(c3ccc(O)cc3Oc3cc(O)ccc32)c2ccc(C(=O)*)cc21",
  "data": [
    {"compound": "C[C@H](NC(=O)[C@H](C)NC(=O)[C@H](CCCCN)NC(=O)[C@H](C)NC(=O)[C@H](CCC(N)=O)NC(=O)[C@@H](N)CCCNC(=N)N)C(=O)N[C@@H](C)C(=O)N[C@@H](CCC(N)=O)C(=O)N[C@@H](CC(N)=O)C(=O)N[C@@H](CCCNC(=N)N)C(=O)N[C@@H](CCCNC(=N)N)C(=O)N[C@@H](C)C(=O)N[C@@H](CCCCN)C(=O)N[C@@H](C)C(=O)N[C@@H](CCCCN)C(=O)N[C@@H](CCCCN)C(=O)N[C@@H](CCCCNC(=O)c1ccc2c(c1)C(=O)OC21c2ccc(O)cc2Oc2cc(O)ccc21)C(=O)O", "note": "[6A, RQAKAAAQNRRAKAKKK-FAM] (H-RQAKAAAQNRRAKAKKK(5FAM)-OH)", "values": [
      {"measurement": "distribution in the cornea", "setting": "[1]; [4]", "value": "significantly less distributed"},
      {"measurement": "distribution in the retina", "setting": "[1]; [4]", "value": "less distributed"},
      {"measurement": "FAM fluorescence signal in anterior and posterior segment of the eye compared with wild-type penetratin", "setting": "[1]; 10 minutes after eye drops, 30 μM, 5 μL x 3", "value": "weakened"},
      {"measurement": "amount entering the eye (cornea and retina) compared with wild-type penetratin", "setting": "[1]; semi-quantitative analysis (FIG. 6C)", "value": "significantly less"},
      {"measurement": "Papp value relative to wild-type penetratin, isolated cornea", "setting": "[2]; [5]", "value": "⅕"},
      {"measurement": "fluorescence in isolated cornea sections compared with wild-type penetratin group", "setting": "[2]; [6]", "value": "no obvious fluorescence signal"},
      {"measurement": "Papp value relative to wild-type penetratin, isolated sclera", "setting": "[3]; [5]", "value": "⅔"},
      {"measurement": "fluorescence signal in isolated sclera sections compared with wild-type penetratin group", "setting": "[3]; [6]", "value": "significantly weaker"}
    ]}
  ]
}
